Assay results: patent US20150259300A1, “4-(ORTHO)-FLUOROPHENYL-5-FLUOROPYRIMIDIN-2-YL AMINES CONTAINING A SULFONE GROUP” (BAYER PHARMA AKTIENGESELLSCHAFT, priority 2012, published 2015)

What was measured:
CDK9/CycT1 = target: T1, CDK9/CycT1 (Homo sapiens, UniProt P50750); test: CDK9/CycT1 kinase assay (TR-FRET, Method 1a); assay type: biochemical; conditions: for IC50: Method 1a, 10 μM ATP; for Selectivity CDK9/CDK2: derived from Methods 1a. and 2.
T1 construct: Recombinant full-length His-tagged human CDK9 and CycT1; His; purchased Invitrogen PV4131; host or cells: insect cells
T1 sequence (P50750 whole entry): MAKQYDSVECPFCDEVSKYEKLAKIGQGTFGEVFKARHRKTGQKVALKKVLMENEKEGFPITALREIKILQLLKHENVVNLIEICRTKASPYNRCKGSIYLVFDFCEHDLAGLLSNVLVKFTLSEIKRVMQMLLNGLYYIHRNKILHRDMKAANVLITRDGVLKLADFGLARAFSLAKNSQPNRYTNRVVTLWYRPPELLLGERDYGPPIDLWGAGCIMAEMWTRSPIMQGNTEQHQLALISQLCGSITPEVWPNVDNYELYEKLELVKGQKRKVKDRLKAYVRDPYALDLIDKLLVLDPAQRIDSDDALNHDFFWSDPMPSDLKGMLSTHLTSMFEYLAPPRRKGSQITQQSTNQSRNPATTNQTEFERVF
T1 sequence (O60563 whole entry partner): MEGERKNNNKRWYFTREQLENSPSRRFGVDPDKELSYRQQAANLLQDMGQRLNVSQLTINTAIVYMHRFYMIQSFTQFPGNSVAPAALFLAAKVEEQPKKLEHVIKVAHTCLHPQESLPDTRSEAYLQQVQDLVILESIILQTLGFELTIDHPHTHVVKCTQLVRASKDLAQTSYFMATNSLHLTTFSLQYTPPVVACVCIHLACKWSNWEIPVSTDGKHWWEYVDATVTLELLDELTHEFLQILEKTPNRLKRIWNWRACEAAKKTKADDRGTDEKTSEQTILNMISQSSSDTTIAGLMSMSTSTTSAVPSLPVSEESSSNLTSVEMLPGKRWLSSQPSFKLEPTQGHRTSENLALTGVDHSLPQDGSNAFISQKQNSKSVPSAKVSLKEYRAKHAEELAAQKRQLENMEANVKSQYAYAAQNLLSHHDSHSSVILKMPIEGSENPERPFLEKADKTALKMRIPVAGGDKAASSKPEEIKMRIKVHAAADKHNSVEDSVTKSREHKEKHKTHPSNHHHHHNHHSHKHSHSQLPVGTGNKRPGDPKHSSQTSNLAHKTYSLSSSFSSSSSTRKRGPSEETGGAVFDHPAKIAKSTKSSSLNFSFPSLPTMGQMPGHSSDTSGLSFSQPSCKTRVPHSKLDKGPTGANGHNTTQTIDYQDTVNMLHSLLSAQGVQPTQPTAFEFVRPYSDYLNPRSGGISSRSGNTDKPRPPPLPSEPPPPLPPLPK
Excerpt: 1a. CDK9/CyeT1 Kinase Assay:
CDK9/CycT1-inhibitory activity of compounds of the present invention was quantified employing the CDK9/CycT1 TR-FRET assay as described in the following paragraphs:
Recombinant full-length His-tagged human CDK9 and CycT1, expressed in insect cells and purified by Ni-NTA affinity chromatography, were purchased from Invitrogen (Cat. No PV4131). As substrate for the kinase reaction biotinylated peptide biotin-Ttds-YISPLKSPYKISEG (C-terminus in amid form) was used which can be purchased e.g. form the company JERINI Peptide Technologies (Berlin, Germany). For the assay 50 nl of a 100 fold concentrated solution of the test compound in DMSO was pipetted into a black low volume 384 well microtiter plate (Greiner Bio-One, Frickenhausen, Germany), 2 μl of a solution of CDK9/CycT1 in aqueous assay buffer [50 mM Tris/HCl pH 8.0, 10 mM MgCl2, 1.0 mM dithiothreitol, 0.1 mM sodium ortho-vanadate, 0.01% (v/v) Nonidet-P40 (Sigma)] were added and the mixture was incubated for 15 min at 22° C. to allow pre-binding of the test compounds to the enzyme before the start of the kinase reaction. Then the kinase reaction was started by the addition of 3 μl of a solution of adenosine-tri-phosphate (ATP, 16.7 μM=>final conc. in the 5 μl assay volume is 10 μM) and substrate (1.67 μM=>final conc. in the 5 μl assay volume is 1 μM) in assay buffer and the resulting mixture was incubated for a reaction time of 25 min at 22° C. The concentration of CDK9/CycT1 was adjusted depending of the activity of the enzyme lot and was chosen appropriate to have the assay in the linear range, typical concentrations were in the range of 1 μg/ml. The reaction was stopped by the addition of 5 μl of a solution of TR-FRET detection reagents (0.2 μM streptavidine-XL665 [Cisbio Bioassays, Codolet, France] and 1 nM anti-RB(pSer807/pSer811)-antibody from BD Pharmingen [#558389] and 1.2 nM LANCE EU-W1024 labeled anti-mouse IgG antibody [Perkin-Elmer, product no. AD0077]) in an aqueous EDTA-solution (100 mM EDTA, 0.2% (w/v) bovine serum albumin in 100 mM HEPES/NaOH pH 7.0).
The resulting mixture was incubated 1 h at 22° C. to allow the formation of complex between the phosphorylated biotinylated peptide and the detection reagents. Subsequently the amount of phosphorylated substrate was evaluated by measurement of the resonance energy transfer from the Eu-chelate to the streptavidine-XL. Therefore, the fluorescence emissions at 620 nm and 665 nm after excitation at 350 nm was measured in a HTRF reader, e.g. a Rubystar (BMG Labtechnologies, Offenburg, Germany) or a Viewlux (Perkin-Elmer). The ratio of the emissions at 665 nm and at […] was taken as the measure for the amount of phosphorylated substrate. The data were normalised (enzyme reaction without inhibitor=0% inhibition, all other assay components but no enzyme=100% inhibition).

HeLa cells = test: Proliferation assay (crystal violet), HeLa; assay type: cell-based; conditions: Homo sapiens, 96 h, 4 days, read-out: Inhibition of HeLa cell proliferation IC50
Description: (§1) Cultivated tumour cells (HeLa, human cervical tumour cells, ATCC CCL-2; NCI-H460, human non-small cell lung carcinoma cells, ATCC HTB-177; A2780, human ovarian carcinoma cells, ECACC #93112519; DU 145, hormone-independent human prostate carcinoma cells, ATCC HTB-81; HeLa-MaTu-ADR, multidrug-resistant human cervical carcinoma cells, EPO-GmbH Berlin; Caco-2, human colorectal carcinoma cells, ATCC HTB-37; B 16F10, mouse melanoma cells, ATCC CRL-6475) were plated at a density of 5,000 cells/well (DU145, HeLa-MaTu-ADR), 3,000 cells/well (NCI-H460, HeLa), 2,500 cells/well (A2780), 1,500 cells/well (Caco-2), or 1,000 cells/well (B16F10) in a 96-well multititer plate in 200 μL of their respective growth medium supplemented 10% fetal calf serum. After 24 hours, the cells of one plate (zero-point plate) were stained with crystal violet (see below), while the medium of the other plates was replaced by fresh culture medium (200 to which the test substances were added in various concentrations (0 μM, as well as in the range of 0.001-10 μM; the final concentration of the solvent dimethyl sulfoxide was 0.5%). The cells were incubated for 4 days in the presence of test substances. Cell proliferation was determined by staining the cells with crystal violet: the cells were fixed by adding 20 μl/measuring point of an 11% glutaric aldehyde solution for 15 minutes at room temperature. After three washing cycles of the fixed cells with water, the plates were dried at room temperature. The cells were stained by adding 100 μl/measuring point of a 0.1% crystal violet solution (pH 3.0). After three washing cycles of the stained cells with water, the plates were dried at room temperature. The dye was dissolved by adding 100 μl/measuring point of a 10% acetic acid solution. The extinction was determined by photometry at a wavelength of 595 nm. The change of cell number, in percent, was calculated by normalization of the measured values to the extinction values of the zero-point plate (=0%) and the extinction of the untreated (0 μm) cells (=100%). The IC50 values (inhibitory concentration at 50% of maximal effect) were determined by means of a 4 parameter fit.

B16F10 cells = test: Proliferation assay (crystal violet), B16F10; assay type: cell-based; conditions: Mus musculus, B16-F10, 96 h; B16F10, 4 days; read-out: Inhibition of B16F10 cell proliferation IC50
Description: as §1, with “After three washing cycles of the fixed cells with water, the plates were dried at room temperature. The cells were stained by adding 100 μl/measuring point of a 0.1% crystal violet solution (pH 3.0). After three washing cycles of the stained cells with water, the plates were dried at room temperature. The dye was dissolved by adding 100 μl/measuring point of a 10% acetic acid solution. The extinction was determined by photometry at a wavelength of 595 nm. The change of cell number, in percent, was calculated by normalization of the measured values to the extinction values of the zero-point plate (=0%) and the extinction of the untreated (0 μm) cells (=100%). The IC50 values (inhibitory concentration at 50% of maximal effect) were determined by means of a 4 parameter fit.” left out

NCI-H460 cells = test: Proliferation assay (crystal violet), NCI-H460; assay type: cell-based; conditions: Homo sapiens, 96 h; NCI-H460, 4 days; read-out: Inhibition of H460 cell proliferation IC50
Description: as §1, with “After three washing cycles of the fixed cells with water, the plates were dried at room temperature. The cells were stained by adding 100 μl/measuring point of a 0.1% crystal violet solution (pH 3.0). After three washing cycles of the stained cells with water, the plates were dried at room temperature. The dye was dissolved by adding 100 μl/measuring point of a 10% acetic acid solution. The extinction was determined by photometry at a wavelength of 595 nm. The change of cell number, in percent, was calculated by normalization of the measured values to the extinction values of the zero-point plate (=0%) and the extinction of the untreated (0 μm) cells (=100%). The IC50 values (inhibitory concentration at 50% of maximal effect) were determined by means of a 4 parameter fit.” left out

DU145 cells = test: Proliferation assay (crystal violet), DU145; assay type: cell-based; conditions: Homo sapiens, DU-145, 96 h; DU145, 4 days; read-out: Inhibition of DU145 cell proliferation IC50
Description: as §1, with “After three washing cycles of the fixed cells with water, the plates were dried at room temperature. The cells were stained by adding 100 μl/measuring point of a 0.1% crystal violet solution (pH 3.0). After three washing cycles of the stained cells with water, the plates were dried at room temperature. The dye was dissolved by adding 100 μl/measuring point of a 10% acetic acid solution. The extinction was determined by photometry at a wavelength of 595 nm. The change of cell number, in percent, was calculated by normalization of the measured values to the extinction values of the zero-point plate (=0%) and the extinction of the untreated (0 μm) cells (=100%). The IC50 values (inhibitory concentration at 50% of maximal effect) were determined by means of a 4 parameter fit.” left out

HeLa-MaTu-ADR cells = test: Proliferation assay (crystal violet), HeLa-MaTu-ADR; assay type: cell-based; conditions: Homo sapiens, 96 h, 4 days, read-out: Inhibition of HeLa-MaTu-ADR cell proliferation IC50
Description: as §1, with “After three washing cycles of the fixed cells with water, the plates were dried at room temperature. The cells were stained by adding 100 μl/measuring point of a 0.1% crystal violet solution (pH 3.0). After three washing cycles of the stained cells with water, the plates were dried at room temperature. The dye was dissolved by adding 100 μl/measuring point of a 10% acetic acid solution. The extinction was determined by photometry at a wavelength of 595 nm. The change of cell number, in percent, was calculated by normalization of the measured values to the extinction values of the zero-point plate (=0%) and the extinction of the untreated (0 μm) cells (=100%). The IC50 values (inhibitory concentration at 50% of maximal effect) were determined by means of a 4 parameter fit.” left out

Caco-2 cells = test: Proliferation assay (crystal violet), Caco-2; assay type: cell-based; conditions: Homo sapiens, 96 h; Caco-2, 4 days; read-out: Inhibition of Caco-2 cell proliferation IC50
Description: as §1, with “After three washing cycles of the fixed cells with water, the plates were dried at room temperature. The cells were stained by adding 100 μl/measuring point of a 0.1% crystal violet solution (pH 3.0). After three washing cycles of the stained cells with water, the plates were dried at room temperature. The dye was dissolved by adding 100 μl/measuring point of a 10% acetic acid solution. The extinction was determined by photometry at a wavelength of 595 nm. The change of cell number, in percent, was calculated by normalization of the measured values to the extinction values of the zero-point plate (=0%) and the extinction of the untreated (0 μm) cells (=100%). The IC50 values (inhibitory concentration at 50% of maximal effect) were determined by means of a 4 parameter fit.” left out

SMILES | IC50 (CDK9/CycT1) | Selectivity CDK9/CDK2 (CDK9/CycT1) | IC50 (HeLa cells) | IC50 (B16F10 cells) | IC50 (NCI-H460 cells) | IC50 (DU145 cells) | IC50 (HeLa-MaTu-ADR cells) | IC50 (Caco-2 cells)
CCCS(=O)(=O)Cc1cccc(Nc2ncc(F)c(-c3ccc(F)cc3F)n2)c1 [Example 8, 4-(2,4-difluorophenyl)-5-fluoro-N-{3-[(propylsulfonyl)methyl]phenyl}pyrimidin-2-amine] | 0.039 µM | 15 | 3 µM | – | – | – | – | –
CC(C)(C)S(=O)(=O)Cc1cccc(Nc2ncc(F)c(-c3ccc(F)cc3F)n2)c1 [Example 3, N-{3-[(tert-Butylsulfonyl)methyl]phenyl}-4-(2,4-difluorophenyl)-5-fluoropyrimidin-2-amine] | 0.11 µM | 10 | 3 µM | – | – | – | – | –
CS(=O)(=O)Cc1cc(Nc2ncc(F)c(-c3ccc(F)cc3F)n2)cc(S(F)(F)(F)(F)F)c1 [Example 6, 4-(2,4-Difluorophenyl)-5-fluoro-N-{3-[(methylsulfonyl)methyl]-5-(pentafluoro-λ^6-sulfanyl)phenyl}pyrimidin-2-amine] | 0.014 µM | 122 | 0.617 µM | 0.951 µM | 0.386 µM | 0.352 µM | 0.22 µM | 0.382 µM
CS(=O)(=O)Cc1cc(F)cc(Nc2ncc(F)c(-c3ccc(F)cc3F)n2)c1 [Example 10, 4-(2,4-Difluorophenyl)-5-fluoro-N-{3-fluoro-5-[(methylsulfonyl)methyl]phenyl}pyrimidin-2-amine] | 0.13 µM | 28 | 3 µM | – | – | – | – | –
CCCS(=O)(=O)Cc1cc(F)cc(Nc2ncc(F)c(-c3ccc(F)cc3F)n2)c1 [Example 13, 4-(2,4-Difluorophenyl)-5-fluoro-N-{3-fluoro-5-[(propylsulfonyl)methyl]phenyl}pyrimidin-2-amine] | 0.013 µM | 44 | 3 µM | – | – | – | – | –
CS(=O)(=O)Cc1cccc(Nc2ncc(F)c(-c3ccc(F)cc3F)n2)c1 [Example 5, 4-(2,4-Difluorophenyl)-5-fluoro-N-{3-[(methylsulfonyl)methyl]phenyl}pyrimidin-2-amine] | 0.051 µM | 9.1 | – | – | – | – | – | –
O=S(=O)(Cc1cccc(Nc2ncc(F)c(-c3ccc(F)cc3F)n2)c1)C1CC1 [Example 9, N-{3-[(Cyclopropylsulfonyl)methyl]phenyl}-4-(2,4-difluorophenyl)-5-fluoropyrimidin-2-amine] | 0.013 µM | 32 | 3 µM | – | – | – | – | –
COCCS(=O)(=O)Cc1cccc(Nc2ncc(F)c(-c3ccc(F)cc3F)n2)c1 [Example 4, 4-(2,4-Difluorophenyl)-5-fluoro-N-(3-{[(2-methoxyethyl)sulfonyl]methyl}phenyl)pyrimidin-2-amine] | 0.13 µM | 20 | – | – | – | – | – | –
CS(=O)(=O)Cc1cc(F)cc(Nc2ncc(F)c(-c3ccc(F)c(F)c3F)n2)c1 [Example 12, 5-fluoro-N-{3-fluoro-5-[(methylsulfonyl)methyl]phenyl}-4-(2,3,4-trifluorophenyl)pyrimidin-2-amine] | 0.025 µM | 14 | 1 µM | – | – | – | – | –
CS(=O)(=O)Cc1cc(F)cc(Nc2ncc(F)c(-c3cc(F)c(F)cc3F)n2)c1 [Example 11, 5-Fluoro-N-{3-fluoro-5-[(methylsulfonyl)methyl]phenyl}-4-(2,4,5-trifluorophenyl)pyrimidin-2-amine] | 0.074 µM | >270 | 2.96 µM | – | – | – | – | –
CC(C)S(=O)(=O)Cc1cccc(Nc2ncc(F)c(-c3ccc(F)cc3F)n2)c1 [Example 2, 4-(2,4-Difluorophenyl)-5-fluoro-N-{3-[(propan-2-ylsulfonyl)methyl]phenyl}pyrimidin-2-amine] | 0.05 µM | 24 | 3 µM | – | – | – | – | –
